Experimental data from patent publication US7429482B2, “Screening tools for discovery of novel anabolic agents” (United States of America as represented by the Department …, priority 2005, dated 2008).

Columns and labels:
[1] = tested on: MAFbx mRNA; test: MAFbx mRNA levels in AR6 / C2C12.AR cells (qPCR); type: cell-based, mouse; conditions: dexamethasone with concurrent testosterone
Experimental: (A) Rats were administered test agents as indicated in the figure for 7-days, at which time animals were sacrificed and MAFbx expression was determined in gastrocnemius muscles by qPCR. Data are mean values±SEM for at least 8 animals. * p<0.05 vs vehicle, t-test. (B) AR6 cells were seeded into 6-well plates and incubated overnight in growth medium. Medium was replaced with DMEM containing 2% horse serum followed by incubation for an additional 48 hours. Hormones or vehicle (EtOH) were added to the medium and cells were incubated overnight, at which time MAFbx mRNA levels were determined by qPCR and expressed as fold-induction versus levels in cells incubated with EtOH. Data are mean values±SEM for three determinations each performed in triplicate. * p<0.05 vs. EtOH (ANOVA). (C) Effect of testosterone on MAFbx mRNA half-life. C2C12.AR cells were incubated overnight in growth medium supplemented with testosterone or vehicle (EtOH). […] Levels of MAFbx mRNA are expressed as a percentage of those at time zero. […]
RNA was quantified by absorbance at 260 nm. […] Relative changes in expression were determined using the 2^−ΔΔCt method. Taqman Assay on Demand probes (Applied Biosystems) were used for all assays except rat 18S RNA, which was quantified using the following Assay on Demand Probes: Forward: […] […]

[2] = tested on: myogenin; test: Acute denervation: myogenin mRNA in EDL and soleus (qPCR); type: in vivo, rat
Experimental: Male Wistar rats weighing 250 gm (Taconic Farms, Germantown, N.Y.) were provided food and water ad libitum and were housed in a temperature and humidity controlled environment providing a 12:12 hour day-night cycle. For surgical procedures, animals were anesthetized with ketamine/xylazine. The left sciatic nerve was exposed by blunt dissection, and a 1 to 2 mm piece of this nerve was excised just below the level of the femoral head. A sham surgery was performed on the right hind limb in which the sciatic nerve was exposed but was not transected. Model 2002 Alzet pumps were implanted subcutaneously on the back. […] A pellet containing 15 mg of testosterone (Innovative Research of America, Sarasota, Fla.) administered as a continuous infusion (5 mg/wk), or a pellet containing placebo, was inserted into a subcutaneous pouch. […] Because testosterone is known to have anabolic actions (Ferrando et al., Am J Physiol Endocrinol Metab 282: E601-E607, 2002; Mauras et al., J Clin Endocrinol Metab 83: 1886-1892, 1998; Urban et al., Am J Physiol 269: E820-E826, 1995), reductions in levels of this hormone could affect muscle mass and confound interpretation of the results. Animals were euthanized 14 days later by inhalation of carbon dioxide. Following removal of blood from the left ventricle for determination of serum testosterone concentration by radioimmunoassay (MP Biomedicals, Costa Mesa, Calif.), soleus, extensor digitorum longus (EDL), gastrocnemius and plantaris muscles were excised and weighed, then were flash frozen on dry ice and stored at −80° C.
Total RNA was extracted from skeletal muscle (20 mg) by homogenization in guanidine thiocyanate using a Polytron followed by extraction using phenol-chloroform (Chomczynski and Sacchi, Anal Biochem 162: 156-159, 1987). Total RNA was further enriched using RNAeasy minicolumns (Qiagen, Valencia, Calif.) and treated with RNAse-free DNAse (Qiagen). Total RNA was then eluted and quantified by absorbance at 260 nm. One μg of total RNA was used to prepare a cDNA library by reverse transcription (iScirpt, Biorad, Hercules, Calif.). Libraries were diluted 1:25 with water prior to real time PCR. Real time PCR was conducted using an ABI 7500 real time PCR thermal cycler, ABI 2×PCR reagent, and ABI Taqman real time PCR probes for genes of interest. Levels of gene expression in the denervated muscle were expressed as fold induction relative to muscle from the sham-denervated leg of animals administered vehicle. […] Fold-induction was determined using the 2^−ΔΔCt method, using expression of 18S RNA as the normalization control. Primers and probes used for 18S RNA, MuRF1 and myostatin were obtained through the assays by Design service of Applied Biosystems and had the sequences are shown in Table 2; probes were 5′ labeled with FAM and 3′ modified with a non-fluorescent quencher. All other primer-probe combinations used were those contained in ABI Assay on Demand kits.

C[C@]12CC[C@H]3[C@@H](CCC4=CC(=O)CC[C@@]43C)[C@@H]1CC[C@@H]2O [testosterone]
MAFbx mRNA level versus cells exposed to ethanol only [1]: not significantly different

C[C@]12CC[C@H]3[C@@H](CCC4=CC(=O)CC[C@@H]43)[C@@H]1CC[C@@H]2O [nandrolone]
myogenin expression ([2]; denervated EDL, not significant): tended to reduce
myogenin expression as % of that in denervated muscle from placebo animals ([2]; denervated soleus): 70%
reduction of myogenin expression ([2]; sham-denervated EDL, not significant): 50%
reduction of myogenin expression ([2]; sham-denervated EDL, trend, not significant): 27%
reduction of myogenin expression ([2]; sham-denervated soleus, did not reach significance): 50%
reduction of myogenin expression ([2]; sham-denervated soleus, trend, not significant): 48%
